Consider one compound from article PMC9147192, “Small Molecule Arranged Thermal Proximity Coaggregation (smarTPCA)—A Novel Approach to Characterize Protein–Protein Interactions in Living Cells by Similar Isothermal Dose–Responses” (International Journal of Molecular Sciences, 2022).

The target of this experiment is T1, UBE2O (Homo sapiens, UniProt Q9C0C9).
T1 construct: endogenous in cells; host or cells: HL-60 (ATCC CCL-240)
T1 sequence (Q9C0C9 1-1292): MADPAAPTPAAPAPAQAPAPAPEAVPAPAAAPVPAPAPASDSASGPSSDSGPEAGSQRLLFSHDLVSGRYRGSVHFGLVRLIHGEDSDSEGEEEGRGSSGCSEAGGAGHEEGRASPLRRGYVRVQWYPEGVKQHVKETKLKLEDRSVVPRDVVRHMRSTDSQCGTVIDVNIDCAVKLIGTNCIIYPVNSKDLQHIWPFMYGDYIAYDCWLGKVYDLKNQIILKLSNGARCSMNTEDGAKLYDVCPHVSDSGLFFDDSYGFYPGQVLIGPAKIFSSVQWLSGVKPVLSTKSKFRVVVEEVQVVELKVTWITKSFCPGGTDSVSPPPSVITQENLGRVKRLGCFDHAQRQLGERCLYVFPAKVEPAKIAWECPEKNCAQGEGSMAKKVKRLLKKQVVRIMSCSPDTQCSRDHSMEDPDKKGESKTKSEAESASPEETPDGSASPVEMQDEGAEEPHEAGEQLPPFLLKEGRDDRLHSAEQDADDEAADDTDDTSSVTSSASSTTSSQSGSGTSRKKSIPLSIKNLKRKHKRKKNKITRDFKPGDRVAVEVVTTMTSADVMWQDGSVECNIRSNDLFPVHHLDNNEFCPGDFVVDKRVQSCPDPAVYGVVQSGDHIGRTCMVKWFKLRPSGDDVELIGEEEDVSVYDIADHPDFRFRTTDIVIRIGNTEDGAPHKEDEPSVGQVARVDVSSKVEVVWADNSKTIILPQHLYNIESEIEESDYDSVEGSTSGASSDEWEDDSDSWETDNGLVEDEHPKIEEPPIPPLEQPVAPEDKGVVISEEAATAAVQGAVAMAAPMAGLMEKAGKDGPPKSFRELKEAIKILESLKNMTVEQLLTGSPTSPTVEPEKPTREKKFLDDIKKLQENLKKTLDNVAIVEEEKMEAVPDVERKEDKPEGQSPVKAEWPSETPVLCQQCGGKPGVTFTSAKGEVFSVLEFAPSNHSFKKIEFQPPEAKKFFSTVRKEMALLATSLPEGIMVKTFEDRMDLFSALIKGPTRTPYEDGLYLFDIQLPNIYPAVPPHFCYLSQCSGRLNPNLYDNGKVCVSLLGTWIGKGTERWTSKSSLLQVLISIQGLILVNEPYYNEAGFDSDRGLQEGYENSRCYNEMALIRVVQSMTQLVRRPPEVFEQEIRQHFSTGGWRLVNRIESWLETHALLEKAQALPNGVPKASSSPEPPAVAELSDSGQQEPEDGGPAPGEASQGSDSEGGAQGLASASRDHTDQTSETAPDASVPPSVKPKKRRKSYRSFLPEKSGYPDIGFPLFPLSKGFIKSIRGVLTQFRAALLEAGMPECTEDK
Description: TPP-CCR in living HL-60 cells. In kind it is cell-based.

Take `Cc1cnc(Nc2ccc(F)cc2Cl)nc1-c1c[nH]c(C(=O)N[C@H](CO)c2cccc(Cl)c2)c1` [ERK 11e]: where the note is “TPP-CCR, living cells, UBE2O”, the Hill slope (commonly a measure of the steepness of the concentration-response curve) is listed as 0.37. Besides, the “Hill slope (UBE2O)” value (living HL-60 cells, […] °C, TMT-MS) was found to be 0.37. Moreover, the EC50 (living HL-60 cells, […] °C, TMT-MS, read-out: pEC50 (UBE2O) (converted)) is 186 nM.
